Source: ChEMBL document CHEMBL1800055, “Orally active MMP-1 sparing α-tetrahydropyranyl and α-piperidinyl sulfone matrix metalloproteinase (MMP) inhibitors with efficacy in cancer, arthritis, and cardiovascular disease” (J Med Chem, 2010)
Active and inactive are the calls of the source. The rule behind the calls is not given here.

Legend:
Interstitial collagenase = target: T1, Interstitial collagenase (Homo sapiens, UniProt P03956); format: cell-based, HT-1080
T1 sequence (P03956 whole entry): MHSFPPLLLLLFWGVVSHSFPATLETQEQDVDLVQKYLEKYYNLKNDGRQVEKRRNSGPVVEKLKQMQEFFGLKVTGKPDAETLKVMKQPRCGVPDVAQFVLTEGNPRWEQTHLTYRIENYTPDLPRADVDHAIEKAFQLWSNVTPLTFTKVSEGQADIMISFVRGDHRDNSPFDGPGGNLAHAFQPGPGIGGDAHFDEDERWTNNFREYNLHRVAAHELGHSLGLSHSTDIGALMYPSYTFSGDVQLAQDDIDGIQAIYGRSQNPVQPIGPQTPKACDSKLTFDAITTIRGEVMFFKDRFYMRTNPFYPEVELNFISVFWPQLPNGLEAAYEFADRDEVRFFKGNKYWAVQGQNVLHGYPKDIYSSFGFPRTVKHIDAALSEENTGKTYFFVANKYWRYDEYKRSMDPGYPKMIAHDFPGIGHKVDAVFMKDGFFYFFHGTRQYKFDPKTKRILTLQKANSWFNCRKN

[1] = target: 72 kDa type IV collagenase (Homo sapiens, UniProt P08253)
Stromelysin-1 = Stromelysin-1 (Homo sapiens, UniProt P08254)
Matrilysin = target: T2, Matrilysin (Homo sapiens, UniProt P09237)
T2 sequence (P09237 whole entry): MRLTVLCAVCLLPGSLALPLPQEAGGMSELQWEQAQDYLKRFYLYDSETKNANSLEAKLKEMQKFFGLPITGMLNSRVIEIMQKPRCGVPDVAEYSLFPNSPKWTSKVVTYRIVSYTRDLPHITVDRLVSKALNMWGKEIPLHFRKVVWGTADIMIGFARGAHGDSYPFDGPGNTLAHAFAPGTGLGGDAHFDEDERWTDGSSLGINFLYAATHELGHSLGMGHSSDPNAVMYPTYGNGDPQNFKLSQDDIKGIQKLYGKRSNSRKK

Neutrophil collagenase = Neutrophil collagenase (Homo sapiens, UniProt P22894)
[2] = Cmax in rat at 20 mg/kg, po; format: ADME, organism-based; set-up: dose 20 mg/kg, route oral; conditions: in vivo
Rattus norvegicus [3] = assay: Plasma concentration in rat at 20 mg/kg, po; format: ADME, organism-based; set-up: dose 20 mg/kg, route oral; conditions: in vivo
[4] = Half life in rat at 20 mg/kg, po; format: ADME, organism-based; set-up: dose 20 mg/kg, route oral; conditions: in vivo
[5] = Oral bioavailability in rat at 20 mg/kg; format: ADME, organism-based; conditions: in vivo
PC-3 [6] = assay: Antitumor activity against human PC3 cells xenografted in po dosed BALB/c nu/nu mouse assessed as tumor growth inhibition administered BID measured on 25 to 30 days; format: functional, organism-based
PC-3 [7] = assay: Antitumor activity against human PC3 cells xenografted in BALB/c nu/nu mouse assessed as tumor growth inhibition at 100 mg/kg, po BID measured on 25 to 30 days relative to control; format: functional
PC-3 [8] = assay: Antitumor activity against human PC3 cells xenografted in BALB/c nu/nu mouse assessed as tumor growth inhibition at 200 mg/kg, po BID measured on 25 to 30 days relative to control; format: functional
PC-3 [9] = assay: Antitumor activity against human PC3 cells xenografted in BALB/c nu/nu mouse assessed as tumor growth inhibition at 25 mg/kg, po BID for 30 days measured on 25 to 30 days relative to control; format: functional
MX1 = assay: Antitumor activity against human MX1 cells xenografted in cyclophosphamide-treated nude mouse adjuvant model assessed as increase in mouse survival time at 6 to 50 mg/kg, po BID measured up to 90 days; format: functional, organism-based
Cartilage tissue = assay: Ex vivo inhibition of IL-1 and oncostatin M-induced bovine nasal cartilage degradation assessed as release of hydroxproline measured up to 16 days by mass spectrometry; format: functional, tissue-based; conditions: Bos taurus, 384 h
Rattus norvegicus [10] = assay: Cardioprotective activity in rat myocardial infarction model assessed inhibition of left ventricular dilation at 50 mg/kg, po qd for 4 weeks (reference value: 0.69 +/- 0.02 mL); format: functional, Heart left ventricle
Mus musculus [11] = assay: Toxicity in mouse assessed as mortality administered bid for 90 days; format: organism-based; conditions: in vivo, 2160 h
Collagenase 3 = Collagenase 3 (Homo sapiens, UniProt P45452)
Rattus norvegicus [12] = assay: Cardioprotective activity in rat myocardial infarction model assessed inhibition of left ventricular dilation at 10 mg/kg, po qd for 4 weeks (reference value: 0.59 +/- 0.02 mL); format: functional, Heart left ventricle
Mus musculus [13] = assay: Antiangiogenic activity in cornea of mouse bFGF-induced corneal micropocket model assessed as inhibition of angiogenesis at 5 mg/kg administered as BID; format: functional
[14] = Tmax in male mouse at 20 mg/kg, po after 24 hrs; format: ADME, organism-based; set-up: dose 20 mg/kg, route oral; conditions: in vivo
[15] = Tmax in male rat at 20 mg/kg, po after 24 hrs; format: ADME, organism-based; set-up: dose 20 mg/kg, route oral; conditions: in vivo
[16] = Tmax in male dog at 20 mg/kg, po after 24 hrs; format: ADME, organism-based, Canis lupus familiaris; set-up: dose 20 mg/kg, route oral; conditions: in vivo
[17] = Tmax in cynomolgus monkey at 20 mg/kg, po after 24 hrs; format: ADME, organism-based, Macaca fascicularis; set-up: dose 20 mg/kg, route oral; conditions: in vivo
[18] = Cmax in male rat at 20 mg/kg, po after 24 hrs; format: ADME, organism-based; set-up: dose 20 mg/kg, route oral; conditions: in vivo
[19] = Cmax in male dog at 20 mg/kg, po after 24 hrs; format: ADME, organism-based, Canis lupus familiaris; set-up: dose 20 mg/kg, route oral; conditions: in vivo
[20] = Cmax in male mouse at 20 mg/kg, po after 24 hrs; format: ADME, organism-based; set-up: dose 20 mg/kg, route oral; conditions: in vivo
[21] = Cmax in cynomolgus monkey at 20 mg/kg, po after 24 hrs; format: ADME, organism-based, Macaca fascicularis; set-up: dose 20 mg/kg, route oral; conditions: in vivo
[22] = AUC (0 to infinity) in male mouse at 20 mg/kg, po after 24 hrs; format: ADME, organism-based; set-up: time infinity, dose 20 mg/kg, route oral; conditions: plasma
[23] = AUC (0 to infinity) in male rat at 20 mg/kg, po after 24 hrs; format: ADME, organism-based; set-up: time infinity, dose 20 mg/kg, route oral; conditions: plasma
[24] = AUC (0 to infinity) in male dog at 20 mg/kg, po after 24 hrs; format: ADME, organism-based, Canis lupus familiaris; set-up: time infinity, dose 20 mg/kg, route oral; conditions: plasma
[25] = AUC (0 to infinity) in cynomolgus monkey at 20 mg/kg, po after 24 hrs; format: ADME, organism-based, Macaca fascicularis; set-up: dose 20 mg/kg, route oral, time infinity; conditions: plasma
[26] = Oral bioavailability in male mouse at 20 mg/kg after 24 hrs; format: ADME, organism-based; conditions: in vivo
[27] = Oral bioavailability in male rat at 20 mg/kg after 24 hrs; format: ADME, organism-based; conditions: in vivo
[28] = Oral bioavailability in male dog at 20 mg/kg after 24 hrs; format: ADME, organism-based, Canis lupus familiaris; conditions: in vivo
[29] = Oral bioavailability in cynomolgus monkey at 20 mg/kg after 24 hrs; format: ADME, organism-based, Macaca fascicularis; conditions: in vivo
[30] = Tmax in female mouse at 20 mg/kg, po after 24 hrs; format: ADME, organism-based; set-up: dose 20 mg/kg, route oral; conditions: in vivo
[31] = Tmax in female rat at 20 mg/kg, po after 24 hrs; format: ADME, organism-based; set-up: dose 20 mg/kg, route oral; conditions: in vivo
[32] = Tmax in female dog at 20 mg/kg, po after 24 hrs; format: ADME, organism-based, Canis lupus familiaris; set-up: dose 20 mg/kg, route oral; conditions: in vivo
[33] = Cmax in female rat at 20 mg/kg, po after 24 hrs; format: ADME, organism-based; set-up: dose 20 mg/kg, route oral; conditions: in vivo
[34] = Cmax in female dog at 20 mg/kg, po after 24 hrs; format: ADME, organism-based, Canis lupus familiaris; set-up: dose 20 mg/kg, route oral; conditions: in vivo
[35] = Cmax in female mouse at 20 mg/kg, po after 24 hrs; format: ADME, organism-based; set-up: dose 20 mg/kg, route oral; conditions: in vivo
[36] = AUC (0 to infinity) in female mouse at 20 mg/kg, po after 24 hrs; format: ADME, organism-based; set-up: time infinity, dose 20 mg/kg, route oral; conditions: plasma
[37] = AUC (0 to infinity) in female rat at 20 mg/kg, po after 24 hrs; format: ADME, organism-based; set-up: time infinity, dose 20 mg/kg, route oral; conditions: plasma
[38] = AUC (0 to infinity) in female dog at 20 mg/kg, po after 24 hrs; format: ADME, organism-based, Canis lupus familiaris; set-up: time infinity, dose 20 mg/kg, route oral; conditions: plasma
[39] = Oral bioavailability in female mouse at 20 mg/kg after 24 hrs; format: ADME, organism-based; conditions: in vivo
[40] = Oral bioavailability in female rat at 20 mg/kg after 24 hrs; format: ADME, organism-based; conditions: in vivo
[41] = Oral bioavailability in female dog at 20 mg/kg after 24 hrs; format: ADME, organism-based, Canis lupus familiaris; conditions: in vivo
[42] = Cmax in rat at 10 mg/mL, iv and po; format: ADME, organism-based; conditions: in vivo
Rattus norvegicus [43] = assay: Plasma concentration in rat at 10 mg/mL, iv and po; format: ADME, organism-based; conditions: in vivo
[44] = Half life in rat at 10 mg/mL, iv and po; format: ADME, organism-based; conditions: in vivo
[45] = Oral bioavailability in rat at 10 mg/mL; format: ADME, organism-based; conditions: in vivo

Chain of Neutrophil collagenase (P22894 whole entry): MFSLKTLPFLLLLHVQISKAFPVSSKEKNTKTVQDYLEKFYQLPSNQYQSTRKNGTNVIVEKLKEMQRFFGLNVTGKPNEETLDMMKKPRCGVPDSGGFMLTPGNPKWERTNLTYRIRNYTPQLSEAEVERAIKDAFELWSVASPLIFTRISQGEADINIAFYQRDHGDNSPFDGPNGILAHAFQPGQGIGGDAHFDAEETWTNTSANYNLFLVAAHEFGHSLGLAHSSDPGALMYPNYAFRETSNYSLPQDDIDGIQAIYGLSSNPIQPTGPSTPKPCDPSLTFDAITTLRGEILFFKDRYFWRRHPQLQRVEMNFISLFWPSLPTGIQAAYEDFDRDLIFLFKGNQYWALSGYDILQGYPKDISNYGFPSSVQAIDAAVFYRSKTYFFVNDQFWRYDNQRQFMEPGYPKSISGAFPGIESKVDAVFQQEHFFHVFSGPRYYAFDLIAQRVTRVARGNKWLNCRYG
Chain of Stromelysin-1 (P08254 whole entry): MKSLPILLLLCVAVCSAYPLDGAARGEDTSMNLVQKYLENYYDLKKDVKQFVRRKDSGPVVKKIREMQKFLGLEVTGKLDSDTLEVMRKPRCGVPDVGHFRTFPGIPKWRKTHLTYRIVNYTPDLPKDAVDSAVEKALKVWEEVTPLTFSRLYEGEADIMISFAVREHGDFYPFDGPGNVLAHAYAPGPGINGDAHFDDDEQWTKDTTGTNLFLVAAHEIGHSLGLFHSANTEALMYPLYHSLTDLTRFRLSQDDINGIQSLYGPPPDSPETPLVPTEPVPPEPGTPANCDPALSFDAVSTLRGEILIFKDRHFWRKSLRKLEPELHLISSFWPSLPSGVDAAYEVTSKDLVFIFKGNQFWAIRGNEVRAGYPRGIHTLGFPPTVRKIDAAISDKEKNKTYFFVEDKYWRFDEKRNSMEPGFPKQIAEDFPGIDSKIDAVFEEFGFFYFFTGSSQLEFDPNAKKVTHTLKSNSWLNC
Chain of 72 kDa type IV collagenase (P08253 whole entry): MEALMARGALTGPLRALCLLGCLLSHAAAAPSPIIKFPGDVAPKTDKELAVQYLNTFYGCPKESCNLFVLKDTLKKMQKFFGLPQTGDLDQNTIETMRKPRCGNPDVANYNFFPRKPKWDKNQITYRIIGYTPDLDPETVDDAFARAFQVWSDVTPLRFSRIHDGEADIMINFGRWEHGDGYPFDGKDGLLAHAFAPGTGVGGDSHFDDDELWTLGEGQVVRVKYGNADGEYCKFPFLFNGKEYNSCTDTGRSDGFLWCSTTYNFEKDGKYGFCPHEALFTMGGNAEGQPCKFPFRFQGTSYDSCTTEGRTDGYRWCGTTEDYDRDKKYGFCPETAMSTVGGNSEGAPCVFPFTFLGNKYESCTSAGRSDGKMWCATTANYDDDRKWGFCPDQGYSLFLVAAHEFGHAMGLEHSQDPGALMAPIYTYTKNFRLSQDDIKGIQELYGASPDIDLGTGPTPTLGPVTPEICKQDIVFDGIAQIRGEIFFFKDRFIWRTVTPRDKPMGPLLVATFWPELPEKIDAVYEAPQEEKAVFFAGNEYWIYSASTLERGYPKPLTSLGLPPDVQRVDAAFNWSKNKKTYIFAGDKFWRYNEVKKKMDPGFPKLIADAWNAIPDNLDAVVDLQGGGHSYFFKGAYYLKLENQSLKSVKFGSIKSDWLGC

O=C(NO)C1(S(=O)(=O)c2ccc(Oc3ccc(OC(F)(F)F)cc3)cc2)CCN(C2CC2)CC1
IC50 (Interstitial collagenase): 4000 nM | IC50 [1]: < 0.1 nM | IC50 (Stromelysin-1): 22 nM | IC50 (Matrilysin): 7000 nM | IC50 (Neutrophil collagenase): 1.2 nM | Cmax [2]: 4160 ng/mL | Cp (Rattus norvegicus [3]): 440 ng/mL | half-life [4]: 2.85 h | bioavailability [5]: 23% | inhibition (PC-3 [6]): Dose-dependent effect | inhibition in vivo at 100 mg/kg (PC-3 [7]): 65% | inhibition in vivo at 200 mg/kg (PC-3 [8]): 65% | inhibition in vivo at 25 mg/kg (PC-3 [9]): 49% | Activity (MX1): Active | IC50 (Cartilage tissue): 10 nM | Activity (Rattus norvegicus [10]): 0.62 mL | Activity (Mus musculus [11]): Non-toxic

COCCN1CCC(C(=O)NO)(S(=O)(=O)c2ccc(Oc3ccc(OC(F)(F)F)cc3)cc2)CC1
IC50 (Interstitial collagenase): > 10000 nM | IC50 [1]: < 0.1 nM | IC50 (Stromelysin-1): 28.7 nM | IC50 (Matrilysin): 7000 nM | IC50 (Neutrophil collagenase): 1.7 nM | IC50 (Collagenase 3): < 0.1 nM | Cmax [2]: 29600 ng/mL | Cp (Rattus norvegicus [3]): 20521 ng/mL | half-life [4]: 2.94 h | bioavailability [5]: 67.9% | inhibition (PC-3 [6]): Dose-dependent effect | Activity (Rattus norvegicus [12]): 0.51 mL | inhibition in vivo at 5 mg/kg (Mus musculus [13]): 60% | Tmax [14]: 0.167 h | Tmax [15]: 2 h | Tmax [16]: 0.833 h | Tmax [17]: 1.67 h | Cmax [18]: 42400 ng/mL | Cmax [19]: 60600 ng/mL | Cmax [20]: 26600 ng/mL | Cmax [21]: 37100 ng/mL | AUC(0-inf) [22]: 29.3 µg·h/mL | AUC(0-inf) [23]: 273 µg·h/mL | AUC(0-inf) [24]: 228 µg·h/mL | AUC(0-inf) [25]: 191 µg·h/mL | bioavailability [26]: 51.7% | bioavailability [27]: 66.6% | bioavailability [28]: 64% | bioavailability [29]: 53.8% | Tmax [30]: 0.167 h | Tmax [31]: 4 h | Tmax [32]: 0.5 h | Cmax [33]: 69800 ng/mL | Cmax [34]: 68900 ng/mL | Cmax [35]: 41000 ng/mL | AUC(0-inf) [36]: 36.1 µg·h/mL | AUC(0-inf) [37]: 668 µg·h/mL | AUC(0-inf) [38]: 156 µg·h/mL | bioavailability [39]: 80.8% | bioavailability [40]: 82.2% | bioavailability [41]: 69.2%

O=C(NO)C1(S(=O)(=O)c2ccc(Oc3ccc(C(F)(F)F)cc3)cc2)CCOCC1
IC50 (Interstitial collagenase): 8000 nM | IC50 [1]: 0.1 nM | IC50 (Stromelysin-1): 22 nM | IC50 (Matrilysin): > 10000 nM | IC50 (Neutrophil collagenase): 9.4 nM | IC50 (Collagenase 3): 0.4 nM | Cmax [42]: 4300 ng/mL | Cp (Rattus norvegicus [43]): 1154 ng/mL | half-life [44]: 2.68 h | bioavailability [45]: 33% | IC50 (Cartilage tissue): 70 nM
